Data taken from ChEMBL document CHEMBL1201862, “PubChem BioAssay data set” (2004).
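Cultured in 96-well plates, cells were exposed to test compound for 48 hours across five concentrations. GI50 = concentration required for 50% inhibition of growth.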 Activity calls are given as the source filed them. No stated cut-off is given here; in the data, active = GI50 up to about 1.1 µM and inactive = higher.

Tests used:
Experiment in all cases: NCI anticancer screen, dose series, 48 h
[1] = tested on: COLO 205
[2] = tested on: EKVX
[3] = tested on: HL-60
[4] = tested on: HOP-62
[5] = tested on: IGROV-1
[6] = tested on: LOX IMVI
[7] = tested on: M14
[8] = tested on: Malme-3M
[9] = tested on: NCI-H460
[10] = tested on: OVCAR-3
[11] = tested on: OVCAR-4
[12] = tested on: RXF 393
[13] = tested on: SF-295
[14] = tested on: SK-MEL-28
[15] = tested on: SW-620
[16] = tested on: UACC-257
[17] = tested on: UACC-62

Measured: GI50

O=C(Nc1ccc(Cl)cc1Cl)C(=O)C(C(=O)c1ccc2ccccc2c1)C1OC(=O)c2ccccc21 (configuration not stated)
inactive: [1] 9.46 µM | [2] 15.9 µM | [3] 2.96 µM | [4] 11.9 µM | [5] 13.6 µM | [6] 5.19 µM | [7] 13.4 µM | [8] > 10 µM | [9] 4.33 µM | [10] 10.7 µM | [11] 10.1 µM | [12] 2.16 µM | [13] 4.02 µM | [14] 3.48 µM | [15] 6.73 µM | [16] 12.6 µM | [17] 9.79 µM

CC(=O)C1CC=C(C)CC1 (configuration not stated)
inactive: [1] > 100 µM | [2] > 100 µM | [3] > 100 µM | [4] > 100 µM | [5] > 100 µM | [6] > 100 µM | [7] > 100 µM | [8] > 100 µM | [9] > 100 µM | [10] > 100 µM | [11] > 100 µM | [12] > 100 µM | [13] > 100 µM | [14] > 100 µM | [15] > 100 µM | [16] > 100 µM | [17] > 100 µM

Clc1ccccc1C(n1cc(Br)cn1)n1cc(Br)cn1
inactive: [3] 14.7 µM | [4] 25.5 µM | [5] > 10 µM | [6] 17 µM | [7] 16.3 µM | [8] 17.2 µM | [9] 14.7 µM | [10] > 10 µM | [11] > 100 µM | [12] 16.7 µM | [13] 16.2 µM | [14] 40.7 µM | [15] > 10 µM | [16] 14.7 µM | [17] > 10 µM

COc1ccc(S(=O)(=O)N/N=C\c2cc([N+](=O)[O-])cc(I)c2O)c(OC)c1OC
inactive: [1] 21.4 µM | [2] 29.9 µM | [3] 26.6 µM | [5] 32 µM | [6] 32.5 µM | [7] 28.4 µM | [8] 27.7 µM | [9] 33 µM | [10] 20.7 µM | [11] 28.4 µM | [12] 20.8 µM | [13] 30.6 µM | [14] 24.5 µM | [15] 39.8 µM | [16] 26.7 µM | [17] 21.9 µM

CC(=O)O[C@]1(C)OC(=O)[C@@H](C)N1[N+](=O)[O-]
inactive: [1] > 100 µM | [2] > 100 µM | [3] 32.1 µM | [4] > 100 µM | [5] > 100 µM | [6] 72.3 µM | [7] > 100 µM | [8] > 100 µM | [9] 39.2 µM | [10] > 100 µM | [11] > 100 µM | [12] > 100 µM | [13] > 100 µM | [14] > 100 µM | [15] > 100 µM | [16] > 100 µM | [17] > 100 µM

COC(=O)C(C)(C)/N=C/N(C)C
inactive: [1] > 100 µM | [2] > 100 µM | [3] 55.6 µM | [4] > 100 µM | [5] > 100 µM | [6] 68.2 µM | [7] > 100 µM | [8] > 100 µM | [9] > 100 µM | [10] > 100 µM | [11] > 100 µM | [12] 86.5 µM | [13] > 100 µM | [14] > 100 µM | [15] 28.4 µM | [16] > 100 µM | [17] > 100 µM

Cc1c(/C=N/NC(=O)c2ccc(Cl)cc2)c(=O)n(-c2ccccc2)n1C
inactive: [1] > 100 µM | [2] > 100 µM | [3] > 100 µM | [4] > 100 µM | [5] > 100 µM | [6] > 100 µM | [7] > 100 µM | [8] > 100 µM | [9] > 100 µM | [10] > 100 µM | [11] > 100 µM | [12] > 100 µM | [13] > 100 µM | [14] > 100 µM | [15] > 100 µM | [16] > 100 µM | [17] > 100 µM

Cc1ccc([N+]2=NC(c3ccc([N+](=O)[O-])cc3)=NN(c3ccccc3)C2)cc1
inactive: [1] > 100 µM | [2] 43.7 µM | [3] 61.7 µM | [4] > 100 µM | [5] 94.4 µM | [6] 60 µM | [8] > 100 µM | [9] 41 µM | [10] > 100 µM | [11] 17.6 µM | [12] 51.9 µM | [13] 53.3 µM | [14] > 100 µM | [15] > 100 µM | [16] 47.1 µM

O=C1c2ccc3c4ccccc4n(-c4ccccc4)c3c2C(=O)N1c1ccc(Cl)cc1
inactive: [1] > 100 µM | [2] > 100 µM | [3] > 100 µM | [4] > 100 µM | [5] > 100 µM | [6] > 100 µM | [7] > 100 µM | [8] > 100 µM | [9] > 100 µM | [10] > 100 µM | [11] > 100 µM | [12] > 100 µM | [13] > 100 µM | [15] > 100 µM | [16] > 100 µM | [17] > 100 µM
